In brackets after ≈: the same amount, converted by molar mass.
Experiments:
[1] = molecular target: E. Coli. IleRS (isoleucyl-tRNA synthetase) (Escherichia coli, UniProt P00956); assay: Inhibition of isoleucyl-tRNA synthetase (aminoacylation of tRNA with [3H]isoleucine); type: biochemical; conditions: E. coli enzyme; irreversible inhibitors: values are 50% of the active enzyme concentration; read-out: IC50 E.Coli. IleRS
Method: The extent of aminoacylation of tRNA with isoleucine catalyzed by isoleucyl-tRNA synthetase enzyme was measured by monitoring the incorporation of [3H] isoleucine into trichloroacetic acid-precipitable tRNA in the presence of a compound of Formula I, as compared with activity in the absence of inhibitor. The isoleucyl-tRNA synthetase enzymes are well known in the prior art and can be obtained and purified by known methods (for example see: D. Kern et at., Biochimie, 61, 1257-1272 (1979) and J. Gilbart et al., Antimicrobial Agents and Chemotherapy, 37 (1), 32-38 (1993)).
Isoleucyl-tRNA synthetase enzyme (0.08-2.0 nM, preferably, 0.4 nM) was first pre-incubated at 25° C. with 0.05 mg/ml bovine serum albumin, 10 mM DTT, 2.5% dimethyl sulfoxide, with or without a compound of Formula I, for 20 minutes. At this point a substrate solution (a solution containing the following: ATP, [^3 H]isoleucine, tRNA, HEPES, magnesium chloride, and potassium chloride) was added to give a final concentration of 0.0286 mg/ml bovine serum albumin, 5.7 mM DTT, 4 mM ATP, 5-20 μM [^3 H] isoleucine (1-15 Ci/mmol), 90 μM crude tRNA or 2 μM isoleucine specific tRNA, 1.4% dimethyl sulfoxide, 30 mM HEPES (pH 7.5), 10 mM magnesium chloride, and 50 mM potassium chloride and incubated at 25° C. Aliquots were removed at selected times (e.g. 5, 10, 20 minutes) and applied to 3MM filter paper discs (Whatman) and then dropped into 5% (wt/vol) trichloroacetic acid for >5 minutes. Filters were washed for three 10-minute periods in 5% trichloroacetic acid, rinsed in 95% ethanol and diethyl ether, and radioactivity was measured with Betafluor™ (National Diagnostics) by liquid scintillation counting.
Inhibitor activity is reported in Table II as an IC50 value (inhibitor concentration causing 50% inhibition of enzyme activity) per a known amount of active enzyme. In the case of irreversible inhibitors (1:1 stoichiometry) these values are 50% of the active enzyme concentration. The IC50 (in nM, E. coli) values of representative compounds of the present invention are listed in the second column of Table II.

[2] = tested on: C. albicans ATCC 10231; assay: Whole cell antimicrobial screen, MIC; type: cell-based; conditions: Candida albicans, ATCC10231
Method: (§1) Compounds were tested for antimicrobial activity against a panel of organisms according to standard procedures described by the National Committee for Clinical Laboratory Standards (NCCLS document M7-A3, Vol. 13, No. 25, 1993/NCCLS document M27-P, Vol. 12, No. 25, 1992). Compounds were dissolved in 100% dimethyl sulfoxide and were diluted to the final reaction concentration (0.1 μg/mL-500 μg/mL) in microbial growth media. In al cases the final concentration of dimethyl sulfoxide incubated with cells is less than or equal to 1%. For minimum inhibitory concentration (MIC) calculations, 2-fold dilutions of compounds were added to wells of a microtiter plate containing 5×10^4 bacteria or fungal cells in a final volume of 100 lambda of an appropriate media (Mueller-Hinton Broth; Haemophilus Test Media; Mueller-Hinton Broth+5% Sheep Blood; or […]). Plates were incubated overnight at an appropriate temperature (30° C.-37° C.) and optical densities (measure of cell growth) were measured using a commercial plate reader. The MIC value is defined as the lowest compound concentration inhibiting growth of the test organism.

[3] = tested on: E. faecalis ATCC 33011; assay: Whole cell antimicrobial screen, MIC; type: cell-based; conditions: Enterococcus faecalis, ATCC33011
Method: as §1

[4] = tested on: E. faecium ATCC 6569; assay: Whole cell antimicrobial screen, MIC; type: cell-based; conditions: Enterococcus faecium, ATCC6569
Method: as §1

[5] = tested on: S. aureus ATCC 14154; assay: Whole cell antimicrobial screen, MIC; type: cell-based; conditions: Staphylococcus aureus, ATCC14154
Method: as §1

[6] = tested on: S. aureus ATCC 6538P; assay: Whole cell antimicrobial screen, MIC; type: cell-based; conditions: Staphylococcus aureus, ATCC6538P
Method: as §1

[7] = tested on: S. epidermidis ATCC 33501; assay: Whole cell antimicrobial screen, MIC; type: cell-based; conditions: Staphylococcus epidermidis, ATCC33501
Method: as §1

[8] = tested on: S. saprophyticus ATCC 35552; assay: Whole cell antimicrobial screen, MIC; type: cell-based; conditions: Staphylococcus saprophyticus, ATCC35552
Method: as §1

[9] = tested on: B. subtilis ATCC 6633; assay: Whole cell antimicrobial screen, MIC; type: cell-based; conditions: Bacillus subtilis, ATCC6633
Method: as §1

[10] = tested on: K. pneumonia ATCC 4352; assay: Whole cell antimicrobial screen, MIC; type: cell-based; conditions: Klebsiella pneumoniae, ATCC4352
Method: as §1

Sequence of E. Coli. IleRS (isoleucyl-tRNA synthetase) (P00956 whole entry): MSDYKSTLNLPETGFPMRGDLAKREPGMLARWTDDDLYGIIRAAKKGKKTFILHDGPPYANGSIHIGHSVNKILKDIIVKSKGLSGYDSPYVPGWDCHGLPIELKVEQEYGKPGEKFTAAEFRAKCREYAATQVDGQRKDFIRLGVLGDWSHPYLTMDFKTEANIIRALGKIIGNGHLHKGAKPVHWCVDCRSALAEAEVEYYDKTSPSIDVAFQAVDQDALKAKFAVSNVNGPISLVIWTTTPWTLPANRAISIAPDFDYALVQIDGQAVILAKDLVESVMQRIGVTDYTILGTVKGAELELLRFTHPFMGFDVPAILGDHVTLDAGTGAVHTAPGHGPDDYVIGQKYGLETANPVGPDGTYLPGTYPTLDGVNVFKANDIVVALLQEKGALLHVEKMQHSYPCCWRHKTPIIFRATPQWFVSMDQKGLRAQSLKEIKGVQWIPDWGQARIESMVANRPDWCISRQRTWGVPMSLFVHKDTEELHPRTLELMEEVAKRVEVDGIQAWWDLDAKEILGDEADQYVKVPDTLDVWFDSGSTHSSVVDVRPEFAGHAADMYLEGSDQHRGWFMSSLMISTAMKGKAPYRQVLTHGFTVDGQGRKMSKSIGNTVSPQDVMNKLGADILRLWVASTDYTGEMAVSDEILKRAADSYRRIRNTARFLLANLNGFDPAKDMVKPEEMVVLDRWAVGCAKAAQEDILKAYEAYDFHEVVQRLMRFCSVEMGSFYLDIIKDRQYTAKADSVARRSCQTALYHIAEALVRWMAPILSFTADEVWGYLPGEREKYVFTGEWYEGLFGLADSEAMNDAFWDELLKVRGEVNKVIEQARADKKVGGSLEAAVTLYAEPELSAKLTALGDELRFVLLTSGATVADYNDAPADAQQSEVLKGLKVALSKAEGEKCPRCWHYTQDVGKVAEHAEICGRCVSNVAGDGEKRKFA

Row | SMILES | IC50 [1] [nM] | MIC [2] [µg/mL] | MIC [3] [µg/mL] | MIC [4] [µg/mL] | MIC [5] [µg/mL] | MIC [6] [µg/mL] | MIC [7] [µg/mL] | MIC [8] [µg/mL] | MIC [9] [µg/mL] | MIC [10] [µg/mL]
1 | CC[C@H](C)[C@H](N)C(=O)NS(=O)(=O)OC[C@H]1O[C@@H](CCn2nnc(-c3ccc(Oc4nccs4)cc3)n2)[C@H](O)[C@@H]1O [XVII] | 1 | > 500 | > 500 | 50 (≈ 83.7 µM) | 500 (≈ 837 µM) | 100 (≈ 167 µM) | 25 (≈ 41.8 µM) | 50 (≈ 83.7 µM) | – | –
2 | CC[C@H](C)[C@H](N)C(=O)NS(=O)(=O)OC[C@H]1O[C@@H](CCn2nnc(-c3ccc(C#Cc4ccc([N+](=O)[O-])s4)cc3)n2)[C@H](O)[C@@H]1O [I, [S-(R*,R*)]-3,6-anhydro-1,2-dideoxy-1-[5-[4-[(5-nitro-2-thienyl)ethynyl]phenyl]-2H-tetrazol-2-yl]-D-allo-heptitol 7-(2-amino-3-methyl-1-oxopentyl)sulfamate] | 1.3 | > 500 | > 500 | > 500 | 5 (≈ 7.7 µM) | 1 (≈ 1.54 µM) | 1 (≈ 1.54 µM) | 2 (≈ 3.08 µM) | – | –
3 | CC[C@H](C)[C@H](N)C(=O)NS(=O)(=O)OC[C@H]1O[C@@H](CCn2nnc(CCCOc3ccccc3)n2)[C@H](O)[C@@H]1O [XXIX] | 0.3 | > 500 | > 500 | > 500 | > 500 | 500 (≈ 898 µM) | 25 (≈ 44.9 µM) | 500 (≈ 898 µM) | – | –
4 | CC[C@H](C)[C@H](N)C(=O)NS(=O)(=O)OC[C@H]1O[C@@H](CCn2nnc(-c3ccc(Oc4ccc(N)cc4)cc3)n2)[C@H](O)[C@@H]1O [XIII] | 0.4 | > 500 | > 500 | 25 (≈ 41.3 µM) | 100 (≈ 165 µM) | 50 (≈ 82.6 µM) | 10 (≈ 16.5 µM) | 25 (≈ 41.3 µM) | – | –
5 | CC[C@H](C)[C@H](N)C(=O)NS(=O)(=O)OC[C@H]1O[C@@H](CCn2nnc(-c3ccc(Oc4cccc(C(F)(F)F)c4)cc3)n2)[C@H](O)[C@@H]1O [XIV] | 1.7 | > 500 | 100 (≈ 152 µM) | 10 (≈ 15.2 µM) | 25 (≈ 38 µM) | 10 (≈ 15.2 µM) | 5 (≈ 7.59 µM) | 10 (≈ 15.2 µM) | – | –
6 | CC[C@H](C)[C@H](N)C(=O)NS(=O)(=O)OC[C@H]1O[C@@H](CCn2nnc(-c3ccc([N+](=O)[O-])o3)n2)[C@H](O)[C@@H]1O [XXVIII] | 8.8 | 500 (≈ 937 µM) | > 128 | > 128 | 128 (≈ 240 µM) | 128 (≈ 240 µM) | 32 (≈ 60 µM) | > 128 | – | –
7 | CC[C@H](C)[C@H](N)C(=O)NS(=O)(=O)OC[C@H]1O[C@@H](CCn2nnc(Cc3ccc(Oc4ccccc4)cc3)n2)[C@H](O)[C@@H]1O [XXX] | 2.7 | > 200 | 500 (≈ 827 µM) | 100 (≈ 165 µM) | 500 (≈ 827 µM) | 100 (≈ 165 µM) | 25 (≈ 41.3 µM) | 100 (≈ 165 µM) | – | –
8 | CC[C@H](C)[C@H](N)C(=O)NS(=O)(=O)OC[C@H]1O[C@@H](CCn2nnc(-c3ccc(C=C(Br)Br)cc3)n2)[C@H](O)[C@@H]1O [V] | 11 | 500 (≈ 733 µM) | 500 (≈ 733 µM) | 100 (≈ 147 µM) | 100 (≈ 147 µM) | 50 (≈ 73.3 µM) | 25 (≈ 36.6 µM) | 25 (≈ 36.6 µM) | – | –
9 | CC[C@H](C)[C@H](N)C(=O)NS(=O)(=O)OC[C@H]1O[C@@H](CCn2nnc(-c3ccc(-c4ccccn4)nc3)n2)[C@H](O)[C@@H]1O [XXV] | 0.5 | – | > 500 | > 500 | 100 (≈ 173 µM) | 500 (≈ 867 µM) | 25 (≈ 43.4 µM) | 50 (≈ 86.7 µM) | > 500 | > 500
10 | CC[C@H](C)[C@H](N)C(=O)NS(=O)(=O)OC[C@H]1O[C@@H](CCn2nnc(-c3ccc(Oc4ccccn4)cc3)n2)[C@H](O)[C@@H]1O [XVI] | 0.7 | 100 (≈ 169 µM) | 500 (≈ 845 µM) | 50 (≈ 84.5 µM) | 100 (≈ 169 µM) | 100 (≈ 169 µM) | 25 (≈ 42.3 µM) | 50 (≈ 84.5 µM) | – | –
11 | CC[C@H](C)[C@H](N)C(=O)NS(=O)(=O)OC[C@H]1O[C@@H](CCn2nnc(-c3ccc(C#Cc4cccc([N+](=O)[O-])c4)cc3)n2)[C@H](O)[C@@H]1O [III] | 3 | > 500 | > 500 | > 500 | 50 (≈ 77.7 µM) | 50 (≈ 77.7 µM) | 1 (≈ 1.55 µM) | 5 (≈ 7.77 µM) | – | –
12 | CC[C@H](C)[C@H](N)C(=O)NS(=O)(=O)OC[C@H]1O[C@@H](CCn2nnc(-c3ccc(C(=O)OC)cc3)n2)[C@H](O)[C@@H]1O [VII] | 0.53 | > 500 | > 500 | 100 (≈ 180 µM) | 500 (≈ 898 µM) | 100 (≈ 180 µM) | 10 (≈ 18 µM) | 50 (≈ 89.8 µM) | – | –
13 | CC[C@H](C)[C@H](N)C(=O)NS(=O)(=O)OC[C@H]1O[C@@H](CCn2nnc(-c3ccc(Oc4ccc(Oc5ccccc5)cc4)cc3)n2)[C@H](O)[C@@H]1O [XV] | 1.8 | > 500 | > 500 | 25 (≈ 36.6 µM) | 10 (≈ 14.6 µM) | 10 (≈ 14.6 µM) | 5 (≈ 7.32 µM) | 10 (≈ 14.6 µM) | – | –
14 | CC[C@H](C)[C@H](N)C(=O)NS(=O)(=O)OC[C@H]1O[C@@H](CCn2nnc(-c3ccc([N+](=O)[O-])cc3)n2)[C@H](O)[C@@H]1O [VIII] | 0.5 | > 500 | > 500 | 500 (≈ 920 µM) | 500 (≈ 920 µM) | 500 (≈ 920 µM) | 10 (≈ 18.4 µM) | 100 (≈ 184 µM) | – | –
15 | CC[C@H](C)[C@H](N)C(=O)NS(=O)(=O)OC[C@H]1O[C@@H](CCn2nnc(-c3ccc(Oc4ccc(OC)cc4)cc3)n2)[C@H](O)[C@@H]1O [XII] | 3 | 500 (≈ 806 µM) | 500 (≈ 806 µM) | 10 (≈ 16.1 µM) | 50 (≈ 80.6 µM) | 25 (≈ 40.3 µM) | < 5 | 25 (≈ 40.3 µM) | – | –
16 | CC[C@H](C)[C@H](N)C(=O)NS(=O)(=O)OC[C@H]1O[C@@H](CCn2nnc(-c3ccc(-c4ccc(F)c(F)c4)cc3)n2)[C@H](O)[C@@H]1O [XXIII] | 2.9 | 10 (≈ 16.4 µM) | – | 100 (≈ 164 µM) | 100 (≈ 164 µM) | 50 (≈ 81.9 µM) | 10 (≈ 16.4 µM) | 25 (≈ 40.9 µM) | 50 (≈ 81.9 µM) | 100 (≈ 164 µM)
17 | CC[C@H](C)[C@H](N)C(=O)NS(=O)(=O)OC[C@H]1O[C@@H](Cn2nnc(Cc3ccc(Oc4ccccc4)cc3)n2)[C@H](O)[C@@H]1O [XXVII, [S-(R*,R*)]-2,5-anhydro-1-deoxy-1-[5-(4-phenoxyphenylmethyl)-2H-tetrazol-2-yl]-D-allitol 6-(2-amino-3-methyl-1-oxopentyl)sulfamate] | 135 | > 500 | > 500 | > 500 | > 500 | > 500 | > 500 | > 500 | – | –

Reference: patent US5726195A, “Aminoacyl adenylate mimics as novel antimicrobial and antiparasitic agents” (Cubist Pharmaceuticals, Inc., priority 1996, dated 1998)
